In patent US10118895B2, “ROR gamma (RORγ) modulators” (LEAD PHARMA HOLDING B.V., priority 2015, dated 2018):

The compounds below were run against T1, RORγ (Homo sapiens, UniProt P51449) (assay: RORγ GAL4 reporter gene assay (luciferase readout, 293FT cells)). Conditions: inhibition of RORγ (GAL4-RORγ-LBD) in transfected 293FT cells, luciferase signal, overnight incubation; read-out: mean pIC50 (converted).
T1 construct: expressed in transfected cells; host or cells: 293FT cells (Invitrogen), expression vector pFN26A (Promega)
T1 sequence (P51449 269-508 limits assumed): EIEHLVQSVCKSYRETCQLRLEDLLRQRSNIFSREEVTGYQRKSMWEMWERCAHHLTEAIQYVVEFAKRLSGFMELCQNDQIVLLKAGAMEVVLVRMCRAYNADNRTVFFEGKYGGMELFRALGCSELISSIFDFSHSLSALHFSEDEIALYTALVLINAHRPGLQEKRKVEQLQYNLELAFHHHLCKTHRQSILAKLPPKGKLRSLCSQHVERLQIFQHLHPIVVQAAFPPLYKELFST
Format: cell-based
Method: RORγ GAL4 Reporter Gene Assay
Example inhibitors 1-38 were tested for their ability to inhibit RORγ activity in a RORγ GAL4 reporter gene assay. The assay procedure and results are described below.
RORγ GAL4 Reporter Gene Assay Description
A GAL4 one-hybrid reporter system employing luciferase readout was established to determine inhibition of RORγ in 293FT cells. The RORγ ligand-binding domain (LBD) was fused to the yeast GAL4 DNA binding domain (DBD) and placed under the control of the human cytomegalovirus (CMV) immediate early promoter, using expression vector pFN26A (Promega) and standard recombinant DNA cloning methods. To serve as a control in the assay, a similar vector was generated in which the GAL4-DBD was fused to Herpes simplex virus protein 16 (VP16), a constitutive transcriptional activator.
To monitor the inhibitory effect of compounds on RORγ, a transcriptional reporter construct was used. The pGL4.35 vector (Promega) contains nine copies of the GAL4 Upstream Activator Sequence (UAS). This sequence drives the transcription of the luciferase reporter gene luc2P in response to binding of a fusion protein containing the GAL4 DNA binding domain, as for example expressed by the GAL4-RORγ-LBD and GAL4-VP16 expression vectors described above. To allow a GAL4 fusion protein to drive the expression of the luciferase reporter, the pGL4.35 expression vector and the appropriate GAL4 fusion protein expression vector were bulk transfected in the 293FT cells using standard transfection techniques.
The day after transfection, cells were plated into 96 well plates, test compound was added and the plates were incubated overnight. Subsequently, the firefly luciferase activity was quantified using luciferase detection reagent and luminescence readout.
Detailed Assay Description
293FT cells (Invitrogen) were transfected with a GAL4 fusion protein expression vector (as described above) and the transcriptional reporter construct (pGL4.35, Promega). 60 μL of TransIT-293 transfection reagent (Mirus Bio) was added drop wise to 1500 μl Opti-MEM I Reduced Serum Medium (Invitrogen) and incubated at RT (RT) for 5 to 20 minutes. 1500 μL of this reagent mixture was added to 5 μg of GAL4 fusion protein expression vector and 5 μg of the transcriptional reporter construct, and incubated at RT for 20 minutes.
To harvest 293FT cells from a T75 flask, first the culture medium was taken off the cells. Subsequently, the cells were washed with Phosphate Buffered Saline (PBS) (Lonza), after which the PBS was removed. To dissociate the cells, 1 ml of TrypLE Express (Invitrogen) was added to the flask, followed by incubation at RT until the cells visually started to detach. Cells were collected in 5 mL of assay medium (DMEM culture medium (Lonza), 10% dialyzed FBS (Invitrogen) and Pen/Strep (Lonza)) to achieve a single cell suspension. 10×10^6 cells were spun down and re-suspended in 10 mL of assay medium. Subsequently, the cell suspension was added to the transfection mix tube, and then transferred as a whole to a T75 flask (Greiner), followed by overnight (16-24 hours) incubation at 37° C. and 5% CO2.
For compound screening, the cells were harvested (as described above) and counted. 13×10^6 cells were spun down, the supernatant was aspirated and the cells were re-suspended in 17.3 mL of assay medium obtaining a cell suspension of 0.75×10^6 cells/mL. 80 μL of cell suspension (60,000 cells) was plated per well into a white, flat bottom, tissue culture treated, 96 well screening plates (Greiner).
Test compounds were diluted, starting from a 10 mM dimethylsulfoxide (DMSO) stock solution, to serial dilutions in DMSO at 500× the final test concentration. Subsequently, these solutions were diluted to 5× the final test concentration in two 10-fold-dilution steps in assay medium. The final DMSO concentration of the 5× test compound solution was 1%. […]

| IC50 | Compound |
| --- | --- |
| ≤ 1000 nM | CCC(O)(c1ccc(NC(=O)Cc2ccc(S(=O)(=O)CC3CC3)nc2)cc1)C(F)(F)F (racemic) [Example 20, 2-[6-(cyclopropylmethylsulfonyl)-3-pyridyl]-N-[4-[1-hydroxy-1-(trifluoromethyl)propyl]phenyl]acetamide] |
| ≤ 1000 nM | CC(C)CCC(O)(c1ccc(NC(=O)Cc2ccc(S(=O)(=O)CC3CC3)nc2)cc1)C(F)(F)F (stereo not shown) [Example 13, 2-[6-(cyclopropylmethylsulfonyl)-3-pyridyl]-N-[4-[1-hydroxy-4-methyl-1-(trifluoromethyl)pentyl]phenyl]acetamide] |
| ≤ 1000 nM | O=C(Cc1ccc(S(=O)(=O)CC2CC2)nc1)Nc1ccc(C(O)(C2CCCC2)C(F)(F)F)cc1 (stereo not shown) [Example 14, N-[4-(1-cyclopentyl-2,2,2-trifluoro-1-hydroxy-ethyl)phenyl]-2-[6-(cyclopropylmethylsulfonyl)-3-pyridyl]acetamide] |
| ≤ 1000 nM | O=C(Cc1ccc(S(=O)(=O)CC2CC2)nc1)Nc1ccc(C(O)(CC2CCCC2)C(F)(F)F)cc1 (stereo not shown) [Example 15, N-[4-[1-(cyclopentylmethyl)-2,2,2-trifluoro-1-hydroxy-ethyl]phenyl]-2-[6-(cyclopropylmethylsulfonyl)-3-pyridyl]acetamide] |
| ≤ 1000 nM | O=C(Cc1ccc(S(=O)(=O)CC2CC2)nc1)Nc1ccc(C(O)(CC2CCCCC2)C(F)(F)F)cc1 (stereo not shown) [Example 16, N-[4-[1-(cyclohexylmethyl)-2,2,2-trifluoro-1-hydroxy-ethyl]phenyl]-2-[6-(cyclopropylmethylsulfonyl)-3-pyridyl]acetamide] |
| ≤ 1000 nM | O=C(Cc1ccc(S(=O)(=O)CC2CC2)nc1)Nc1ccc(C(O)(C2CC2)C2CC2)cc1 [Example 18, 2-[6-(cyclopropylmethylsulfonyl)-3-pyridyl]-N-[4-[dicyclopropyl(hydroxy)methyl]phenyl]acetamide] |
| ≤ 100 nM | O=C(Cc1ccc(S(=O)(=O)CC2CC2)nc1)Nc1ccc(C(O)(c2ccccc2)C(F)(F)F)cc1 (stereo not shown) [Example 19, 2-[6-(cyclopropylmethylsulfonyl)-3-pyridyl]-N-[4-(2,2,2-trifluoro-1-hydroxy-1-phenyl-ethyl)phenyl]acetamide] |
| ≤ 1000 nM | Cc1cc(S(=O)(=O)CC2CC2)ncc1CC(=O)Nc1ccc(C(O)(C(F)(F)F)C(F)(F)F)cc1 [Example 23, 2-[6-(cyclopropylmethylsulfonyl)-4-methyl-3-pyridyl]-N-[4-[2,2,2-trifluoro-1-hydroxy-1-(trifluoromethyl)ethyl]phenyl]acetamide] |
| ≤ 1000 nM | Cc1nc(S(=O)(=O)CC2CC2)ccc1CC(=O)Nc1ccc(C(O)(C(F)(F)F)C(F)(F)F)cc1 [Example 24, 2-[6-(cyclopropylmethylsulfonyl)-2-methyl-3-pyridyl]-N-[4-[2,2,2-trifluoro-1-hydroxy-1-(trifluoromethyl)ethyl]phenyl]acetamide] |

Second part, the compound before the results:

| Compound | IC50 |
| --- | --- |
| O=C(Cc1ccc(S(=O)(=O)CC2CC2(F)F)nc1)Nc1ccc(C(O)(C(F)(F)F)C(F)(F)F)cc1 (racemic) [(−)-22, (−)-2-[6-[(2,2-difluorocyclopropyl)methylsulfonyl]-3-pyridyl]-N-[4-[2,2,2-trifluoro-1-hydroxy-1-(trifluoromethyl)ethyl]phenyl]acetamide] | ≤ 1000 nM |
| O=C(Cc1ccc(S(=O)(=O)CC2CC2)nc1)Nc1ccc(C(O)(C(F)(F)F)C(F)(F)F)cc1 [Example 1, 2-[6-(cyclopropylmethylsulfonyl)-3-pyridyl]-N-[4-[2,2,2-trifluoro-1-hydroxy-1-(trifluoromethyl)ethyl]phenyl]acetamide] | ≤ 100 nM |
| COC(c1ccc(NC(=O)Cc2ccc(S(=O)(=O)CC3CC3)nc2)cc1)(C(F)(F)F)C(F)(F)F [Example 2, 2-[6-(cyclopropylmethylsulfonyl)-3-pyridyl]-N-[4-[2,2,2-trifluoro-1-methoxy-1-(trifluoromethyl)ethyl]phenyl]acetamide] | ≤ 100 nM |
| Cc1cc(NC(=O)Cc2ccc(S(=O)(=O)CC3CC3)nc2)ccc1C(O)(C(F)(F)F)C(F)(F)F [Example 3, 2-[6-(cyclopropylmethylsulfonyl)-3-pyridyl]-N-[3-methyl-4-[2,2,2-trifluoro-1-hydroxy-1-(trifluoromethyl)ethyl]phenyl]acetamide] | ≤ 100 nM |
| O=C(Cc1ccc(S(=O)(=O)CC2CC2)nc1)Nc1ccc(C(O)(C(F)(F)F)C(F)(F)F)c(F)c1 [Example 4, 2-[6-(cyclopropylmethylsulfonyl)-3-pyridyl]-N-[3-fluoro-4-[2,2,2-trifluoro-1-hydroxy-1-(trifluoromethyl)ethyl]phenyl]acetamide] | ≤ 100 nM |
| O=C(Cc1ccc(S(=O)(=O)CC2CC2)nc1)Nc1ccc(C(O)(C(F)(F)F)C(F)(F)F)c(Cl)c1 [Example 5, N-[3-chloro-4-[2,2,2-trifluoro-1-hydroxy-1-(trifluoromethyl)ethyl]phenyl]-2-[6-(cyclopropylmethylsulfonyl)-3-pyridyl]acetamide] | ≤ 100 nM |
| COc1cc(NC(=O)Cc2ccc(S(=O)(=O)CC3CC3)nc2)ccc1C(O)(C(F)(F)F)C(F)(F)F [Example 6, 2-[6-(cyclopropylmethylsulfonyl)-3-pyridyl]-N-[3-methoxy-4-[2,2,2-trifluoro-1-hydroxy-1-(trifluoromethyl)ethyl]phenyl]acetamide] | ≤ 1000 nM |
| Cc1cc(C(O)(C(F)(F)F)C(F)(F)F)ccc1NC(=O)Cc1ccc(S(=O)(=O)CC2CC2)nc1 [Example 7, 2-[6-(cyclopropylmethylsulfonyl)-3-pyridyl]-N-[2-methyl-4-[2,2,2-trifluoro-1-hydroxy-1-(trifluoromethyl)ethyl]phenyl]acetamide] | ≤ 1000 nM |
| O=C(Cc1ccc(S(=O)(=O)CC2CC2)nc1)Nc1ccc(C(O)(C(F)(F)F)C(F)(F)F)cc1F [Example 8, 2-[6-(cyclopropylmethylsulfonyl)-3-pyridyl]-N-[2-fluoro-4-[2,2,2-trifluoro-1-hydroxy-1-(trifluoromethyl)ethyl]phenyl]acetamide] | ≤ 100 nM |
| COc1cc(C(O)(C(F)(F)F)C(F)(F)F)ccc1NC(=O)Cc1ccc(S(=O)(=O)CC2CC2)nc1 [Example 9, 2-[6-(cyclopropylmethylsulfonyl)-3-pyridyl]-N-[2-methoxy-4-[2,2,2-trifluoro-1-hydroxy-1-(trifluoromethyl)ethyl]phenyl]acetamide] | ≤ 1000 nM |
| O=C(Cc1ccc(S(=O)(=O)CC2CC2)nc1)Nc1ccc(C(O)(C(F)(F)F)C(F)(F)F)cn1 [Example 10, 2-[6-(cyclopropylmethylsulfonyl)-3-pyridyl]-N-[5-[2,2,2-trifluoro-1-hydroxy-1-(trifluoromethyl)ethyl]-2-pyridyl]acetamide] | ≤ 1000 nM |
| CCCC(O)(c1ccc(NC(=O)Cc2ccc(S(=O)(=O)CC3CC3)nc2)cc1)C(F)(F)F (stereo not shown) [Example 11, 2-[6-(cyclopropylmethylsulfonyl)-3-pyridyl]-N-[4-[1-hydroxy-1-(trifluoromethyl)butyl]phenyl]acetamide] | ≤ 1000 nM |
| CC(C)CC(O)(c1ccc(NC(=O)Cc2ccc(S(=O)(=O)CC3CC3)nc2)cc1)C(F)(F)F (stereo not shown) [Example 12, 2-[6-(cyclopropylmethylsulfonyl)-3-pyridyl]-N-[4-[1-hydroxy-3-methyl-1-(trifluoromethyl)butyl]phenyl]acetamide] | ≤ 100 nM |
